Assay results published in patent publication US8227625B2, “4,5,6,7-tetrahydrobenzo[b]thiophene derivatives and their use as sigma receptor ligands” (Laboratorios del Dr. Esteve, S.A., priority 2006, dated 2012).

Compound | melting point
O=C(O)C(=O)O.OC1(c2ccc(Cl)cc2)CCN(CCC2CCCc3sccc32)CC1 (stereo not drawn) | 184 to 185 °C
FC(F)(F)c1ccc(C2CCN(CCC3CCCc4sccc43)CC2)cc1.O=C(O)C(=O)O (stereo not drawn) [Example 26, 1-(2-(4,5,6,7-tetrahydrobenzo[b]thiophen-4-yl)ethyl)-4-(4-(trifluoromethyl)phenyl)piperidine oxalate] | 180 to 182 °C
Clc1ccc(C2CCN(CCC3CCCc4sccc43)CC2)cc1.O=C(O)C(=O)O (stereo not drawn) [Example 34, 4-(4-chlorophenyl)-1-(2-(4,5,6,7-tetrahydrobenzo[b]thiophen-4-yl)ethyl)piperidine oxalate] | 201 to 202 °C
Clc1cccc(C2CCN(CCC3CCCc4sccc43)CC2)c1.O=C(O)C(=O)O (stereo not drawn) [Example 42, 4-(3-chlorophenyl)-1-(2-(4,5,6,7-tetrahydrobenzo[b]thiophen-4-yl)ethyl)piperidine oxalate] | 185 to 186 °C
COc1cccc(C2CCN(CCC3CCCc4sccc43)CC2)c1.O=C(O)C(=O)O (stereo not drawn) [Example 44, 4-(3-methoxyphenyl)-1-(2-(4,5,6,7-tetrahydrobenzo[b]thiophen-4-yl)ethyl)piperidine oxalate] | 157 to 159 °C
Fc1ccc(C2CCN(CCC3CCCc4sccc43)CC2)cc1.O=C(O)C(=O)O (stereo not drawn) [Example 46, 4-(4-fluorophenyl)-1-(2-(4,5,6,7-tetrahydrobenzo[b]thiophen-4-yl)ethyl)piperidine oxalate] | 179 to 181 °C
FC(F)(F)c1cc(C2CCN(CCC3CCCc4sccc43)CC2)cc(C(F)(F)F)c1.O=C(O)C(=O)O (stereo not drawn) [Example 48, 4-(3,5-bis(trifluoromethyl)phenyl)-1-(2-(4,5,6,7-tetrahydrobenzo[b]thiophen-4-yl)ethyl)piperidine oxalate] | 205 to 206 °C
O=C(O)C(=O)O.c1ccc2cc(C3CCN(CCC4CCCc5sccc54)CC3)ccc2c1 (stereo not drawn) [Example 50, 4-(naphthalen-2-yl)-1-(2-(4,5,6,7-tetrahydrobenzo[b]thiophen-4-yl)ethyl)piperidine oxalate] | 203 to 205 °C
O=C(O)C(=O)O.c1ccc2[nH]c(C3CCN(CCC4CCCc5sccc54)CC3)nc2c1 (stereo not drawn) [Example 59, 2-(1-(2-(4,5,6,7-tetrahydrobenzo[b]thiophen-4-yl)ethyl)piperidin-4-yl)-1H-benzo[d]imidazole oxalate] | 223 to 225 °C
COc1ccc(C2CCN(CCC3CCCc4sccc43)CC2)cc1.O=C(O)C(=O)O (stereo not drawn) [Example 63, 4-(4-methoxyphenyl)-1-(2-(4,5,6,7-tetrahydrobenzo[b]thiophen-4-yl)ethyl)piperidine oxalate] | 175 to 176 °C
CN1CCC2(CCN(CCC3CCCc4sccc43)CC2)C1=O.O=C(O)C(=O)O (stereo not drawn) [Example 65, 2-Methyl-8-[2-(4,5,6,7-tetrahydrobenzo[b]thiophen-4-yl)-ethyl]-2,8-diazaspiro[4.5]decan-1-one oxalate] | 140 to 142 °C
O=C(O)C(=O)O.O=C1N(c2ccc(Cl)cc2)CCC12CCN(CCC1CCCc3sccc31)CC2 (stereo not drawn) [Example 69, 2-(4-Chlorophenyl)-8-[2-(4,5,6,7-tetrahydrobenzo[b]thiophen-4-yl)-ethyl]-2,8-diazaspiro[4.5]decan-1-one oxalate] | 218 to 220 °C
O=C(O)C(=O)O.O=C1NCCC12CCN(CCC1CCCc3sccc31)CC2 (stereo not drawn) [Example 71, 8-[2-(4,5,6,7-Tetrahydrobenzo[b]thiophen-4-yl)-ethyl]-2,8-diazaspiro[4.5]decan-1-one oxalate] | 147 to 149 °C
Clc1cc(Cl)c2c(c1)CN(CCC1CCCc3sccc31)CC2.O=C(O)C(=O)O (stereo not drawn) [Example 77, 5,7-dichloro-2-(2-(4,5,6,7-tetrahydrobenzo[b]thiophen-4-yl)ethyl)-1,2,3,4-tetrahydroisoquinoline oxalate] | 182 to 184 °C
CC(C)(C)N1CCC2(CCN(CCC3CCCc4sccc43)CC2)C1=O.O=C(O)C(=O)O (stereo not drawn) [Example 81, 2-tert-butyl-8-[2-(4,5,6,7-tetrahydrobenzo[b]thiophen-4-yl)-ethyl]-2,8-diazaspiro[4.5]decan-1-one oxalate] | 172 to 173 °C
COc1ccc(N2CCC3(CCN(CCC4CCCc5sccc54)CC3)C2=O)cc1.O=C(O)C(=O)O (stereo not drawn) [Example 85, 2-(4-Methoxyphenyl)-8-[2-(4,5,6,7-tetrahydrobenzo[b]thiophen-4-yl)-ethyl]-2,8diazaspiro[4.5]decan-1-one oxalate] | 205 to 206 °C

Further lines, results first:

melting point | Compound
172 to 176 °C | O=C(O)C(=O)O.c1ccc2c(c1)COC21CCN(CCC2CCCc3sccc32)CC1 (stereo not drawn)
186 to 189 °C | O=C(O)C(=O)O.O=C1OC2(CCN(CCC3CCCc4sccc43)CC2)c2ccccc21 (stereo not drawn)
198 to 199 °C | C1=CC2(CCN(CCC3CCCc4sccc43)CC2)c2ccccc21.O=C(O)C(=O)O (stereo not drawn)
139 to 141 °C | CN(C/C=C1\CCCc2sccc21)Cc1ccccc1.O=C(O)C(=O)O [Example 4, (E)-N-benzyl-2-(6,7-dihydrobenzo[b]thien-4(5H)-ylidene)-N-methylethanamine oxalate]
160 to 163 °C | C(/CN1CCC(c2ccccc2)CC1)=C1/CCCc2sccc21.O=C(O)C(=O)O [Example 6, (E)-1-(2-(6,7-dihydrobenzo[b]thien-4(5H)-ylidene)ethyl)-4-phenylpiperidine oxalate]
129 to 130 °C | CN(C/C=C1\CCCc2sccc21)CCc1ccccc1.O=C(O)C(=O)O [Example 8, (E)-N-(2-(6,7-dihydrobenzo[b]thien-4(5H)-ylidene)ethyl)-N-methyl-2-phenylethanamine oxalate]
148 to 150 °C | C(/CN1CCCCC1)=C1/CCCc2sccc21.O=C(O)C(=O)O [Example 10, (E)-1-(2-(6,7-dihydrobenzo[b]thien-4(5H)-ylidene)ethyl)piperidine oxalate]
139 to 141 °C | CC1CCN(C/C=C2\CCCc3sccc32)CC1.O=C(O)C(=O)O [Example 12, (E)-1-(2-(6,7-dihydrobenzo[b]thien-4(5H)-ylidene)ethyl)-4-methylpiperidine oxalate]
171 to 174 °C | C(/CN1CCOCC1)=C1/CCCc2sccc21.O=C(O)C(=O)O [Example 14, (E)-4-(2-(6,7-dihydrobenzo[b]thien-4(5H)-ylidene)ethyl)morpholine oxalate]
203 to 205 °C | O=C(O)C(=O)O.c1ccc2c(c1)CN(CCC1CCCc3sccc31)C2 (stereo not drawn) [Example 22, 2-(2-(4,5,6,7-tetrahydrobenzo[b]thien-4-yl)ethyl)isoindoline oxalate]
168 to 171 °C | CN(CCC1CCCc2sccc21)Cc1ccccc1.O=C(O)C(=O)O (stereo not drawn) [Example 24, N-benzyl-N-methyl-2-(4,5,6,7-tetrahydrobenzo[b]thien-4-yl)ethanamine oxalate]
188 to 190 °C | Cc1ccccc1C1CCN(CCC2CCCc3sccc32)CC1.O=C(O)C(=O)O (stereo not drawn) [Example 28, 1-(2-(4,5,6,7-tetrahydrobenzo[b]thiophen-4-yl)ethyl)-4-o-tolylpiperidine oxalate]
203 to 204 °C | Fc1cccc(C2CCN(CCC3CCCc4sccc43)CC2)c1.O=C(O)C(=O)O (stereo not drawn) [Example 30, 4-(3-fluorophenyl)-1-(2-(4,5,6,7-tetrahydrobenzo[b]thiophen-4-yl)ethyl)piperidine oxalate]
197 to 198 °C | O=C(O)C(=O)O.c1ccc2c(C3CCN(CCC4CCCc5sccc54)CC3)cccc2c1 (stereo not drawn) [Example 32, 4-(naphthalen-1-yl)-1-(2-(4,5,6,7-tetrahydrobenzo[b]thiophen-4-yl)ethyl)piperidine oxalate]
160 to 162 °C | COc1ccccc1C1CCN(CCC2CCCc3sccc32)CC1.O=C(O)C(=O)O (stereo not drawn) [Example 36, 4-(2-methoxyphenyl)-1-(2-(4,5,6,7-tetrahydrobenzo[b]thiophen-4-yl)ethyl)piperidine oxalate]
207 to 208 °C | O=C(O)C(=O)O.c1ccc2oc(C3CCN(CCC4CCCc5sccc54)CC3)cc2c1 (stereo not drawn) [Example 52, 4-(benzofuran-2-yl)-1-(2-(4,5,6,7-tetrahydrobenzo[b]thiophen-4-yl)ethyl)piperidine oxalate]
208 to 209 °C | Fc1ccccc1C1CCN(CCC2CCCc3sccc32)CC1.O=C(O)C(=O)O (stereo not drawn) [Example 54, 4-(2-fluorophenyl)-1-(2-(4,5,6,7-tetrahydrobenzo[b]thiophen-4-yl)ethyl)piperidine oxalate]
190 to 192 °C | O=C(O)C(=O)O.c1ccc2c(C3CCN(CCC4CCCc5sccc54)CC3)csc2c1 (stereo not drawn) [Example 57, 4-(benzo[b]thiophen-3-yl)-1-(2-(4,5,6,7-tetrahydrobenzo[b]thiophen-4-yl)ethyl)piperidine oxalate]
155 to 157 °C | Cc1nc2ccccc2n1C1CCN(CCC2CCCc3sccc32)CC1.O=C(O)C(=O)O (stereo not drawn) [Example 61, 2-methyl-1-(1-(2-(4,5,6,7-tetrahydrobenzo[b]thiophen-4-yl)ethyl)piperidin-4-yl)-1H-benzo[d]imidazole oxalate]
200 to 201 °C | COc1ccc2c(c1)CN(CCC1CCCc3sccc31)CC2.O=C(O)C(=O)O (stereo not drawn) [Example 75, 7-methoxy-2-(2-(4,5,6,7-tetrahydrobenzo[b]thiophen-4-yl)ethyl)-1,2,3,4-tetrahydroisoquinoline oxalate]
162 to 164 °C | O=C(O)C(=O)O.c1ccc2c(c1)ccn2C1CCN(CCC2CCCc3sccc32)CC1 (stereo not drawn) [Example 79, 1-(1-(2-(4,5,6,7-tetrahydrobenzo[b]thiophen-4-yl)ethyl)piperidin-4-yl)-1H-indole oxalate]
170 to 171 °C | O=C(O)C(=O)O.O=C1N(Cc2ccccc2)CCC12CCN(CCC1CCCc3sccc31)CC2 (stereo not drawn) [Example 83, 2-benzyl-8-[2-(4,5,6,7-tetrahydrobenzo[b]thiophen-4-yl)-ethyl]-2,8-diazaspiro[4.5]decan-1-one oxalate]
200 to 201 °C | O=C(O)C(=O)O.O=C1N(c2ccccc2)CCC12CCN(CCC1CCCc3sccc31)CC2 (stereo not drawn) [Example 87, 2-phenyl-8-[2-(4,5,6,7-tetrahydrobenzo[b]thiophen-4-yl)-ethyl]-2,8-diazaspiro[4.5]decan-1-one oxalate]
